Test results reported in article PMC4747190, “Flavokawain A induces deNEDDylation and Skp2 degradation leading to inhibition of tumorigenesis and cancer progression in the TRAMP transgenic mouse model” (Oncotarget, 2015).
pIC50: −log10 of the molar value.

Target: T1, NEDD8-activating enzyme (NAE), Uba3 subunit (Homo sapiens, UniProt Q8TBC4)
T1 construct: His-APP-BP1, His-Uba3 (kit enzymes); with APPBP1 (NAE1); Ubc12 and NEDD8 present in the assay
Assay: in vitro NEDD8 conjugation assay with purified E1 (APPBP1/Uba3), Ubc12 and NEDD8; non-reducing western blot of Ubc12-NEDD8
Type: biochemical

T1 sequence (Q8TBC4 2-463): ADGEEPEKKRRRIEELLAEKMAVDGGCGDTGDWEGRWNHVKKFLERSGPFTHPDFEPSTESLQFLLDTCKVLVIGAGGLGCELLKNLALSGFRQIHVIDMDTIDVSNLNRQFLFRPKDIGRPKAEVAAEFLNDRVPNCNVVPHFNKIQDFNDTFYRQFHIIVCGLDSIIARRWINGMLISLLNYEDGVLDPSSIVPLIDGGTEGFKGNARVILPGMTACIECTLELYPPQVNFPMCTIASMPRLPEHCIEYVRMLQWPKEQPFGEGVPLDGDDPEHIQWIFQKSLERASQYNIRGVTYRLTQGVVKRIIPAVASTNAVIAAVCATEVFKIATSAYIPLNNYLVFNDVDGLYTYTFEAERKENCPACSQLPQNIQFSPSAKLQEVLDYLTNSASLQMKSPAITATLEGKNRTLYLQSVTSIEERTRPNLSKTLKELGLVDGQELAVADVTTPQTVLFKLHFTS
T1 sequence (Q13564 2-534 partner): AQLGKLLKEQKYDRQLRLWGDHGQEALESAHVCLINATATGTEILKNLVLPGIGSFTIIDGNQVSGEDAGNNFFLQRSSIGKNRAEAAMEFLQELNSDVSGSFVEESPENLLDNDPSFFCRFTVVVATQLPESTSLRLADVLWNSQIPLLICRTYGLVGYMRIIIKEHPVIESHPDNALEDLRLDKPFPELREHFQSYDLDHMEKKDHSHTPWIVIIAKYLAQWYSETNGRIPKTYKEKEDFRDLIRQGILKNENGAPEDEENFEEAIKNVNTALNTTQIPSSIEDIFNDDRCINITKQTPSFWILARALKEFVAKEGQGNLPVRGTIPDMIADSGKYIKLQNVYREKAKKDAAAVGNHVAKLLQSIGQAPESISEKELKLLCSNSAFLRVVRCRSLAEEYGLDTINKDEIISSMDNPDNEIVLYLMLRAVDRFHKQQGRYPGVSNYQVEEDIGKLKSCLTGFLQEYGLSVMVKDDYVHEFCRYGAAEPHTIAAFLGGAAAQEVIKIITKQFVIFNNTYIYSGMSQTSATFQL
T1 sequence (P61081 whole entry partner): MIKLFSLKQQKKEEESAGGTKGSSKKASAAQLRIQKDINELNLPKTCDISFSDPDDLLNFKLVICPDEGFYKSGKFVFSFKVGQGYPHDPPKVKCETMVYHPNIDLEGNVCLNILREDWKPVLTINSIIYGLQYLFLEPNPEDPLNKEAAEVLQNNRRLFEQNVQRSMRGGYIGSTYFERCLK
T1 sequence (Q15843 1-76 partner): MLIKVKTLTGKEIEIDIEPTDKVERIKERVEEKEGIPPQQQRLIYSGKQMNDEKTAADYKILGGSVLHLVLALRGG

pIC50: ~5.30
SMILES: COc1ccc(/C=C/C(=O)c2c(O)cc(OC)cc2OC)cc1 [FKA, flavokawain A]
